In ChEMBL document CHEMBL2311445, “Discovery of novel inhibitors of LEDGF/p75-IN protein-protein interactions” (Bioorg Med Chem, 2013) one finds IC50, EC50 and inhibition data, which are given here for 18 compounds.

For assay [1], the target named is T1, Human immunodeficiency virus type 1 integrase (Human immunodeficiency virus 1, UniProt Q7ZJM1). Put plainly: Inhibition of wild type HIV1 integrase strand transfer activity using 5'-end 32P-labeled linear oligonucleotide as substrate preincubated for 30 mins.
Assay [2] addresses T1, Human immunodeficiency virus type 1 integrase. Put plainly: Inhibition of wild type HIV1 integrase 3'-processing activity using 5'-end 32P-labeled linear oligonucleotide as substrate preincubated for 30 mins.
Assay [3] has as its system Human immunodeficiency virus 1. Put plainly: Antiviral activity against HIV1 3B infected in human MT4 cells assessed as inhibition of virus-induced cytopathic effect by MTT assay. Type of assay: functional, organism-based. The note with it: Human immunodeficiency virus 1, 3B. On the technique in general: Protection from cytopathic effect is a common read-out in antiviral testing.

A short description of assay [4]: Inhibition of human Flag-tagged LEDGF interaction to His6-tagged HIV1 integrase expressed in Escherichia coli BL21 (DE3) preincubated for 20 mins measured after 1 hr by AlphaScreen proximity luminescent assay. On the technique in general: Bead proximity is the source of the signal in Alpha formats.
For assay [5], the system named is HCT-116. Put plainly: Cytotoxicity against human HCT116 p53 +/+ and -/- cells after 72 hrs by MTT assay. Type of assay: cell-based. The note with it: HCT-116, 72 h.
The nature of assay [6]: Inhibition of human Flag-tagged LEDGF interaction to His6-tagged HIV1 integrase expressed in Escherichia coli BL21 (DE3) at 1000 uM preincubated for 20 mins measured after 1 hr by AlphaScreen proximity luminescent assay.

Calls of active or inactive are those of the source. The calls are words filed in the database; no cut-off is given here. Some results are limits rather than exact numbers.

T1 sequence (Q7ZJM1 whole entry): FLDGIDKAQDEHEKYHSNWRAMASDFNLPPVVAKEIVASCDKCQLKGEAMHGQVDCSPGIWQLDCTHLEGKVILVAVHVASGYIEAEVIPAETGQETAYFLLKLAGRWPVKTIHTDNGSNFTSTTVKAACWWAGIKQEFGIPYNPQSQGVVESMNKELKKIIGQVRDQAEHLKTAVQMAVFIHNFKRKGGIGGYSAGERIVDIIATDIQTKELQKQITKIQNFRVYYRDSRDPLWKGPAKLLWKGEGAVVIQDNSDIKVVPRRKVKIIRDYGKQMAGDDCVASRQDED

One may read the IC50 as the concentration that gives 50% inhibition. As a reminder, the EC50 is the concentration that produces a half-maximal response. A low value points to a more potent agent. Regarding `COc1ccc(OC)c(/C=N/NC(=O)c2n[nH]c3c2CCC3)c1`, the IC50 was > 100 µM in assay [1], > 100 µM in assay [2], > 40 µM in assay [3] and > 50 µM in assay [4]. Further, the EC50 in assay [5] is > 10 µM.
On to `CCN(CC)c1ccc(/C=C2\CCC(/C=N/N=C/c3cccnc3)=C2N2CCOCC2)cc1`, for which the IC50 in assay [1] was > 100 µM; in assay [2] it was > 100 µM; in assay [3] it was > 20 µM; in assay [4], 3 µM. Also, in assay [5], the concentration for a half-maximal effect (EC50) is > 10 µM.
For `O=C(N/N=C/c1ccccc1O)c1cnccn1`, the half-inhibitory concentration (IC50) is > 100 µM in assay [1], > 100 µM in assay [2], > 40 µM in assay [3] and 0.4 µM in assay [4]. The compound further had an EC50 in assay [5] of 9 µM.
As for `O=C(N/N=C/c1c(O)ccc2ccccc12)c1cc[nH]n1`, the IC50 in assay [1] is > 100 µM; in assay [2], > 100 µM; in assay [3], > 14 µM; in assay [4], 7 µM. The EC50 in assay [5] was 1.5 µM.
With `CCOc1cccc(/C=N/NC(=O)c2n[nH]c3c2CCC3)c1O`, the IC50 in assay [1] was > 100 µM; in assay [2], > 100 µM; in assay [3], > 4 µM; in assay [4], 2 µM. This compound yielded an EC50 in assay [5] of 6 µM.
As to `CC/N=c1/scc(-c2cc(OC)ccc2OC)n1/N=C(\C)c1ccco1`, the IC50 in assay [1] was > 100 µM; in assay [2], > 100 µM; in assay [3] it was > 60 µM; in assay [4] it was 8 µM. For the same compound, the EC50 in assay [5] was > 10 µM.
In the case of `CN(C)c1ccc(/N=N/c2ccc(Cl)cc2)cc1`, the IC50 in assay [1] is > 100 µM; in assay [2], > 100 µM; in assay [3], > 100 µM; in assay [4] it was 2 µM. The EC50 in assay [5] was > 10 µM.
`COCCN1C(=O)/C(=C\NNC(=O)c2cc(Cl)ccc2O)C(=O)NC1=S`: the IC50 is 80 µM in assay [1], 90 µM in assay [2], > 40 µM in assay [3] and 13 µM in assay [4]. Moreover, in assay [5], the EC50 stood at 10 µM.
Regarding `c1ccc(/N=N/C(=N/Nc2ccccc2)c2ccccc2)cc1`, the IC50 in assay [1] was > 100 µM; in assay [2], > 100 µM; in assay [3], > 5 µM; in assay [4], 20 µM. The half-maximal effective concentration (EC50) in assay [5] was > 10 µM.
`C/C(=N\N1CCN(Cc2ccccc2Cl)CC1)c1ccc([N+](=O)[O-])cc1`: the IC50 in assay [1] is > 100 µM; in assay [2], > 100 µM; in assay [3] it was > 100 µM; in assay [4], 19 µM. Besides, in assay [5], the EC50 is > 10 µM.
For `Cc1nnc(NN)c2c1[nH]c1ccccc12`, the IC50 in assay [1] was > 100 µM; in assay [2], > 100 µM; in assay [3], > 50 µM; in assay [4], 5 µM.
With `O=C(N/N=C/c1c(O)ccc2ccccc12)c1n[nH]c2c1CCC2`, the 50% inhibitory concentration (IC50) is > 100 µM in assay [1], > 100 µM in assay [2], > 17 µM in assay [3] and 4 µM in assay [4]. Moreover, the concentration for a half-maximal effect (EC50) in assay [5] is < 1 µM.
As to `NNC(=O)c1ccncc1`, in assay [6], the inhibition entry was “inactive”.
On to `CCNc1nc(NCC)nc(C(=O)NN)n1`, for which the IC50 was < 100 µM in assay [1], < 100 µM in assay [2], > 20 µM in assay [3] and 6 µM in assay [4].
For the compound `COc1ccccc1N1CCN(/N=C/c2ccc(Cl)c([N+](=O)[O-])c2)CC1`, the IC50 in assay [1] is > 100 µM; in assay [2], > 100 µM; in assay [3] it was > 100 µM; in assay [4], 21 µM. For the same compound, in assay [5], the EC50 is > 10 µM.
As to `Cc1ccc(N/N=C2\Sc3ccccc3C2=O)cc1`, the IC50 in assay [1] is > 100 µM; in assay [2], > 100 µM; in assay [3] it was > 100 µM; in assay [4] it was 6 µM. In assay [5], this compound showed an EC50 of 10 µM.
With `COc1ccccc1NS(=O)(=O)c1ccc(N/N=C(\C)c2ccccc2Br)c([N+](=O)[O-])c1`, the IC50 in assay [1] was > 100 µM; in assay [2] it was > 100 µM; in assay [3] it was 12 µM; in assay [4], 6 µM. Besides, the EC50 in assay [5] was > 10 µM.
As to `COCC/N=c1/scc(-c2cccs2)n1/N=C/c1cc(Br)c(O)c(OC)c1`, the IC50 in assay [1] is > 100 µM; in assay [2], > 100 µM; in assay [3], > 15 µM; in assay [4], 14 µM. The EC50 in assay [5] is > 10 µM.
